Laboratory results as given in patent US9133183B2, “Imidazolidinones and analogs exhibiting anti-cancer and anti-proliferative activities” (Deciphera Pharmaceuticals, LLC, priority 2013, dated 2015).
Where two headings read alike, the source gives them in different places.

Experiments:
[1] = molecular target: unphosphorylated c-KIT kinase (uKIT, Seq. ID no. 2) (Homo sapiens (Human), UniProt P10721); assay: uKit kinase assay (coupled pyruvate kinase/lactate dehydrogenase); format: biochemical; conditions: enzymatic assay, ATP 2000 μM
Outline: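 The read-out was a continuous PK/LDH-coupled decrease in NADH absorbance at 340 nm, monitored at 30 °C over 4 h. IC50 came from % inhibition based on rates at 3–4 h. The GST-tagged unphosphorylated KIT (12 nM) was used with polyE4Y substrate, 2000 μM ATP and 10 mM Mg2+ at pH 7.5, with serially diluted compound.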

[2] = molecular target: unphosphorylated c-FMS kinase (uFMS, Seq. ID no. 1) (Homo sapiens (Human), UniProt P07333); assay: uFMS kinase assay (ADP production coupled to pyruvate kinase/lactate dehydrogenase); format: biochemical
Outline: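 Unphosphorylated FMS (10 nM) with polyE4Y 1 mg/mL and 500 μM ATP in 90 mM Tris pH 7.5, 10 mM MgCl2, 0.2% octyl-glucoside, 1% DMSO. ADP formation was coupled via pyruvate kinase/LDH to NADH oxidation, followed at A340 for 4 h at 30° C.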

osteoclast precursors = assay: Osteoclast tartrate-resistant acid phosphatase assay; format: cell-based; conditions: Osteoclast, 7-14 days, RANKL and M-CSF
[3] = molecular target: c-FMS kinase in THP-1 cells (Homo sapiens (Human), UniProt P07333); assay: Phospho-FMS ELISA assay in THP-1 cells; format: cell-based; conditions: 4 h compound, M-CSF stimulation 5 min; read-out: pFMS inhibition in THP-1 cells
[4] = enzymatic assay, ATP 500 μM, read-out: uFMS

Chain of unphosphorylated c-FMS kinase (uFMS, Seq. ID no. 1) (P07333 538-972): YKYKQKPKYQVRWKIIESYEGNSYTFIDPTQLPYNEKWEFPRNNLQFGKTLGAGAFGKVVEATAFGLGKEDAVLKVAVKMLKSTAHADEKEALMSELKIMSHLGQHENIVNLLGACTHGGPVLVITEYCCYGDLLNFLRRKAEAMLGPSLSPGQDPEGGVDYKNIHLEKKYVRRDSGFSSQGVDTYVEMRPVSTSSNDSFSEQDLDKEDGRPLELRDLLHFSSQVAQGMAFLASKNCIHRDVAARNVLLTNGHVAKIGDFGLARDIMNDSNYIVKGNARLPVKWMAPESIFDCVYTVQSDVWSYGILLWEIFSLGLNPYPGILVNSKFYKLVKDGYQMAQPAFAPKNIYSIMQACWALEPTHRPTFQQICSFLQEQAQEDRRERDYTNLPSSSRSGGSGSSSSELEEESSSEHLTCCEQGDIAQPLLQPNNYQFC
Chain of unphosphorylated c-KIT kinase (uKIT, Seq. ID no. 2) (P10721 other isoform, or with tags, fused parts or gaps): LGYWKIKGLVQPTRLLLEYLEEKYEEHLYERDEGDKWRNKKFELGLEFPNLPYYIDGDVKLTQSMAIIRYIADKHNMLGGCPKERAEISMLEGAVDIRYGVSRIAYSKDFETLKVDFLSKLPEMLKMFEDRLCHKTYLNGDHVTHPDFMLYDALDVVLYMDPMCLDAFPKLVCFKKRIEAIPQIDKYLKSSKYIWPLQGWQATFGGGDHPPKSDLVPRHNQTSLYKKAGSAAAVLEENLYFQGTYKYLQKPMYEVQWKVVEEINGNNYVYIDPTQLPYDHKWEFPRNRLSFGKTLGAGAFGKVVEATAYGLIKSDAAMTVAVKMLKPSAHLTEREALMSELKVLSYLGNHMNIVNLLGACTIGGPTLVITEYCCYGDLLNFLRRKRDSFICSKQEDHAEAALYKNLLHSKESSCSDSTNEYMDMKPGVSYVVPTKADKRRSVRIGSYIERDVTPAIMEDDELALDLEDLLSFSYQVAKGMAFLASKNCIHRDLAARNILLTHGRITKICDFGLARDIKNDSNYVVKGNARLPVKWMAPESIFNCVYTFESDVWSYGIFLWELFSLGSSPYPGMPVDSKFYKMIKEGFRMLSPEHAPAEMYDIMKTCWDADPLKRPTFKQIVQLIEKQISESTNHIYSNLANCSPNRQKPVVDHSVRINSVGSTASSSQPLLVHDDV
Chain of c-FMS kinase in THP-1 cells (P07333 20-972): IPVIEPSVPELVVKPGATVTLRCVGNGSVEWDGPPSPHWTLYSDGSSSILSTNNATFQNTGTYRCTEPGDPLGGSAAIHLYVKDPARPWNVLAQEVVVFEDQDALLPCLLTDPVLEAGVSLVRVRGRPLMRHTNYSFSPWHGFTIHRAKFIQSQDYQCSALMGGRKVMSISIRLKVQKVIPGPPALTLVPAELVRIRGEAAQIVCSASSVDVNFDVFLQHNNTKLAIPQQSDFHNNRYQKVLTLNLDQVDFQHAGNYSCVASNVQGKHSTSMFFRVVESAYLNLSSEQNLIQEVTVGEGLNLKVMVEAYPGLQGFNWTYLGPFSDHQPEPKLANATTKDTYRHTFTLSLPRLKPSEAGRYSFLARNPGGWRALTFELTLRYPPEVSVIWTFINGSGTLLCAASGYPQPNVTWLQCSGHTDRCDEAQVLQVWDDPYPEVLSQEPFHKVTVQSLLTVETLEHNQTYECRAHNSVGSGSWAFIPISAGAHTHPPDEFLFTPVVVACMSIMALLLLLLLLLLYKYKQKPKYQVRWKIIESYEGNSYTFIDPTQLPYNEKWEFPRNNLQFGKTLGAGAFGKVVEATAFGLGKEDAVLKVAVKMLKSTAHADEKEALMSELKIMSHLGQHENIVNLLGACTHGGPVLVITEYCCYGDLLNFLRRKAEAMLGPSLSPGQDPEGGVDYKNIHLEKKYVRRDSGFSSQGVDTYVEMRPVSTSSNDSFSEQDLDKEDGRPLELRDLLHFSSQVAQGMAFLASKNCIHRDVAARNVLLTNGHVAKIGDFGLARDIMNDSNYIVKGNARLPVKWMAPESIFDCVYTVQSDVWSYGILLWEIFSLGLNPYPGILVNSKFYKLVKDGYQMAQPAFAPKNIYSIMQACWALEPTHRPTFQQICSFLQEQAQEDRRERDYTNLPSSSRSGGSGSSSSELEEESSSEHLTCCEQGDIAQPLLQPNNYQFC

Compound | IC50 [1] [µM] | IC50 [2, 4] [µM] | IC50 (osteoclast precursors) [µM] | IC50 [3] [µM] | IC50 ([2]; Table 4, read-out: c-FMS IC50) [µM]
Cc1cc(-c2cc(Oc3ccc(NC(=O)N4CCN(C5CCOCC5)C4=O)nc3)ccn2)on1 [Example 7, N-(5-((2-(3-methylisoxazol-5-yl)pyridin-4-yl)oxy)pyridin-2-yl)-2-oxo-3-(tetrahydro-2H-pyran-4-yl)imidazolidine-1-carboxamide] | 0.01 to 0.1 | 0.01 to 0.1 | 0.01 to 0.1 | 0.01 to 0.1 | –
Cc1nc(NC(=O)N2CCN(C3CCOCC3)C2=O)ccc1Oc1ccnc(-c2cnn(C)c2)c1 [Example 3, N-(6-methyl-5-((2-(1-methyl-1H-pyrazol-4-yl)pyridin-4-yl)oxy)pyridin-2-yl)-2-oxo-3-(tetrahydro-2H-pyran-4-yl)imidazolidine-1-carboxamide] | 0.1 to 1 | < 0.01 | 0.01 to 0.1 | 0.01 to 0.1 | –
Cn1cc(-c2cc(Oc3ccc(NC(=O)N4CCN(C5CCOCC5)C4=O)nc3)ccn2)cn1 [Example 1, N-(5-((2-(1-methyl-1H-pyrazol-4-yl)pyridin-4-yl)oxy)pyridin-2-yl)-2-oxo-3-(tetrahydro-2H-pyran-4-yl)imidazolidine-1-carboxamide] | 0.01 to 0.1 | < 0.01 | 0.01 to 0.1 | 0.01 to 0.1 | 0.006
Cn1cc(-c2cc(Oc3ccc(NC(=O)N4CCN(C5CCC(F)(F)CC5)C4=O)nc3)ccn2)cn1 [Example 25, 3-(4,4-difluorocyclohexyl)-N-(5-((2-(1-methyl-1H-pyrazol-4-yl)pyridin-4-yl)oxy)pyridin-2-yl)-2-oxoimidazolidine-1-carboxamide] | < 0.01 | < 0.01 | < 0.01 | 0.01 to 0.1 | –
Cc1cc(NC(=O)N2CCN(C)C2=O)ncc1Oc1ccnc(-c2cnn(C)c2)c1 [Example 85, 3-methyl-N-(4-methyl-5-((2-(1-methyl-1H-pyrazol-4-yl)pyridin-4-yl)oxy)pyridin-2-yl)-2-oxoimidazolidine-1-carboxamide] | 0.01 to 0.1 | < 0.01 | < 0.01 | 0.01 to 0.1 | –
[2H]C([2H])([2H])n1cc(-c2cc(Oc3ccc(NC(=O)N4CCN(CCOC)C4=O)nc3C)ccn2)cn1 [Example 39, 3-(2-methoxyethyl)-N-(6-methyl-5-((2-(1-(trideuteromethyl)-1H-pyrazol-4-yl)pyridin-4-yl)oxy)pyridin-2-yl)-2-oxoimidazolidine-1-carboxamide] | 0.1 to 1 | 0.01 to 0.1 | 0.01 to 0.1 | 0.01 to 0.1 | –
CC(=O)Nc1cc(Oc2ccc(NC(=O)N3CCN(C4CCOCC4)C3=O)nc2)ccn1 [Example 119, N-(5-((2-acetamidopyridin-4-yl)oxy)pyridin-2-yl)-2-oxo-3-(tetrahydro-2H-pyran-4-yl)imidazolidine-1-carboxamide] | 0.1 to 1 | 0.01 to 0.1 | 0.01 to 0.1 | 0.01 to 0.1 | –
CN(C)C(=O)Nc1cc(Oc2ccc(NC(=O)N3CCN(C4CCOCC4)C3=O)nc2)ccn1 [Example 120, N-(5-((2-(3,3-dimethylureido)pyridin-4-yl)oxy)pyridin-2-yl)-2-oxo-3-(tetrahydro-2H-pyran-4-yl)imidazolidine-1-carboxamide] | 0.01 to 0.1 | < 0.01 | < 0.01 | 0.01 to 0.1 | –
CCN1CCN(C(=O)Nc2ccc(Oc3ccnc(-c4ccc(C5CCN(C)CC5)cc4)c3)c(C)n2)C1=O [Example 61, 3-ethyl-N-(6-methyl-5-((2-(4-(1-methylpiperidin-4-yl)phenyl)pyridin-4-yl)oxy)pyridin-2-yl)-2-oxoimidazolidine-1-carboxamide] | 0.1 to 1 | < 0.01 | < 0.01 | < 0.01 | –
COC[C@H](C)N1CCN(C(=O)Nc2ccc(Oc3ccnc(-c4cnn(C)c4)c3)cn2)C1=O [Example 16, (S)-3-(1-methoxypropan-2-yl)-N-(5-((2-(1-methyl-11H-pyrazol-4-yl)pyridin-4-yl)oxy)pyridin-2-yl)-2-oxoimidazolidine-1-carboxamide] | < 0.01 | < 0.01 | < 0.01 | 0.01 to 0.1 | –
Cc1ccc(-c2cc(Oc3ccc(NC(=O)N4CCN(C5CCOCC5)C4=O)nc3)ccn2)cn1 [Example 52, N-(5-((6′-methyl-[2,3′-bipyridin]-4-yl)oxy)pyridin-2-yl)-2-oxo-3-(tetrahydro-2H-pyran-4-yl)imidazolidine-1-carboxamide] | 0.01 to 0.1 | 0.01 to 0.1 | 0.01 to 0.1 | 0.1 to 1 | –
Cc1nc(NC(=O)N2CCN(C3CCCCC3)C2=O)ccc1Oc1ccnc(-c2cnn(C)c2)c1 [Example 22, 3-cyclohexyl-N-(6-methyl-5-((2-(1-methyl-1H-pyrazol-4-yl)pyridin-4-yl)oxy)pyridin-2-yl)-2-oxoimidazolidine-1-carboxamide] | 0.01 to 0.1 | < 0.01 | < 0.01 | 0.01 to 0.1 | –
COCCN1CCN(C(=O)Nc2ccc(Oc3ccnc(-c4cnn(C)c4)c3)cn2)C1=O [Example 10, 3-(2-methoxyethyl)-N-(5-((2-(1-methyl-11H-pyrazol-4-yl)pyridin-4-yl)oxy)pyridin-2-yl)-2-oxoimidazolidine-1-carboxamide] | 0.1 to 1 | 0.01 to 0.1 | 0.01 to 0.1 | < 0.01 | –
CCn1cc(-c2cc(Oc3ccc(NC(=O)N4CCN(C5CCOCC5)C4=O)nc3)ccn2)cn1 [Example 4, N-(5-((2-(1-ethyl-1H-pyrazol-4-yl)pyridin-4-yl)oxy)pyridin-2-yl)-2-oxo-3-(tetrahydro-2H-pyran-4-yl)imidazolidine-1-carboxamide] | 0.01 to 0.1 | 0.01 to 0.1 | 0.01 to 0.1 | < 0.01 | –
CCc1nc(NC(=O)N2CCN(C3CCOCC3)C2=O)ccc1Oc1ccnc(-c2cnn(C)c2)c1 [Example 49, N-(6-ethyl-5-((2-(1-methyl-1H-pyrazol-4-yl)pyridin-4-yl)oxy)pyridin-2-yl)-2-oxo-3-(tetrahydro-2H-pyran-4-yl)imidazolidine-1-carboxamide] | > 1 | 0.01 to 0.1 | 0.01 to 0.1 | 0.1 to 1 | –
Cc1nc(NC(=O)N2CCN(C3COC3)C2=O)ccc1Oc1ccnc(-c2cnn(C)c2)c1 [Example 20, N-(6-methyl-5-((2-(1-methyl-1H-pyrazol-4-yl)pyridin-4-yl)oxy)pyridin-2-yl)-3-(oxetan-3-yl)-2-oxoimidazolidine-1-carboxamide] | 0.1 to 1 | 0.01 to 0.1 | 0.01 to 0.1 | 0.01 to 0.1 | –
